Assay results taken from patent US4640931A, “3-(indian-5-yloxy (or thio)) cyclopentanecarboxylic acid analogues” (Ono Pharmaceutical Co., Ltd., priority 1984, dated 1987).

What was measured:
[1] = test system: organ slice of cat cerebral cortex (cerebral edema); experiment: inhibition test on cerebral edema using organ slice of cat cerebral cortex (NaHCO3-stimulated swelling); type: cell-based; conditions: for IC50: Felis catus, 50 min, cat cerebral cortex slices, NaHCO3 stimulated swelling, 50 minutes at 37° C., pH 7.4, read-out: Inhibitory activity cerebral edema (IC50); for Relative activity (Compound A = 1): relative to Compound A = 1
Experimental: The inhibition test on cerebral edema using organ slice of cat cerebral cortex The test was carried out by the method described in Journal of Medicinal Chemistry, vol. 25 (No. 5) 567 (1982).
That is, brain was isolated from a cat weighing 2-4 kg, slices of about 1 mm in thickness was prepared, the white matter substance was removed, and the gray matter substance (100-150 mg a test) was used for a sample. The sample was added to the following incubation medium and incuvated for 50 minutes at 37° C. After the incubation, the sample was immediately weighed again to determine the swelling weight of the sample. […]
incubation medium (osmotic pressure, 280-290 mOsm/1)
1. Hepes Buffer (pH 7.4) . . . 2.365 ml […]
adjusted to pH 7.4 by NaOH
2. test compounds [dissolved in the presence of tris(hydroxymethyl)aminomethane] or water . . . 0.01 ml 3. 0.2M NaHCO3 (dissolved by Hepes Buffer, giving the final concentration of 10 mM in medium) or Hepes Buffer . . . 0.125 ml The test was carried out by using NaHCO3 as a stimulating agent of swelling.
(A) A percentage of swelling when a slice sample was added to incubation medium comprising Hepes Buffer (1), water (2) and NaHCO3 (3) (defined as maximum of swelling).
(B) A percentage of swelling when a slice sample was added to incubation medium comprising Hepes Buffer ((1)+(3)) and water (2) (defined as maximum inhibition of swelling).
(C) A percentage of swelling when a slice sample was added to incubation medium comprising Hepes Buffer (1), the test compounds in various concentrations (2) and NaHCO3 (3).
Above-mentioned (A), (B) and (C) were determined. Inhibition percentage of the test compounds was caliculated by the following equation: [formula] IC50 value was determined by dose-response curve as a concentration in which inhibition percentage was 50.

acute toxicity test = conditions: in vivo, iv; administered intravenously
From the text: On the other hand, it was confirmed that the acute toxicity of the compounds of the present invention was very weak. […] Therefore, compounds of the present invention may be considered to be sufficiently safe and suitable for medical use.

[2] = test system: organ slice of cat cerebral cortex (cerebral edema); conditions: in words, known DCPIB; cited from earlier work

CC1(C2CCCC2)Cc2cc(O[C@H]3CC[C@H](C(=O)O)C3)c(Cl)c(Cl)c2C1=O (mixture of isomers) [Ex. 2 (a), (1S, 3S)-3-[((2RS)-2-cyclopentyl-2-methyl-6,7-dichloro-1-oxoindan-5-yl)oxy]cyclopentanecarboxylic acid]
IC50 [1]: 1.5 nM
Relative activity (Compound A = 1) [1]: 21.3
LD50 (acute toxicity test): 200 to 400 mg/kg

CC1(C2CCCC2)Cc2cc(S[C@H]3CC[C@H](C(=O)O)C3)c(Cl)c(Cl)c2C1=O (mixture of isomers) [Ex. 2 (b), (1S, 3S)-3-[((2RS)-2-cyclopentyl-2-methyl-6,7-dichloro-1-oxoindan-5-yl)thio]cyclopentanecarboxylic acid]
IC50 [1]: 5.9 nM
Relative activity (Compound A = 1) [1]: 5.42

CC1(C2CCCC2)Cc2cc(O[C@H]3CC[C@H](C(=O)O)C3)c(Cl)c(Cl)c2C1=O (relative stereo) [Ex. 2, 1,3-trans-3-[((2RS)-2-cyclopentyl-2-methyl-6,7-dichloro-1-oxoindan-5-yl)oxy]cyclopentanecarboxylic acid]
IC50 [1]: 2.5 nM
Relative activity (Compound A = 1) [1]: 12.8

C[C@]1(C2CCCC2)Cc2cc(OCCCC(=O)O)c(Cl)c(Cl)c2C1=O [Compound A, (+)-4-[((2R)-2-cyclopentyl-2-methyl-6,7-dichloro-1-oxoindan-5-yl)oxy]butyric acid, reference compound]
inhibitory effect on cerebral edema [2]: strong, but the effect is not enough to use in practice
IC50 [1]: 32 nM

C[C@@]1(C2CCCC2)Cc2cc(O[C@H]3CC[C@H](C(=O)O)C3)c(Cl)c(Cl)c2C1=O [Ex. 2 (c), (1S, 3S)-3-[((2S)-2-cyclopentyl-2-methyl-6,7-dichloro-1-oxoindan-5-yl)oxy]cyclopentanecarboxylic acid]
IC50 [1]: 1.6 nM
Relative activity (Compound A = 1) [1]: 20.0
